Results on ten compounds are retold here after EP0812857A1, “Irreversible HIV protease inhibitors, compositions containing same and process for the preparation thereof” (LG Chemical Limited, priority 1996, dated 1997).

Where only a bound is given, the exact number is not on record here.

One data set has as its target T1, HIV-1 protease (Human immunodeficiency virus type 1 group M subtype B, UniProt P04585).
T1 construct: addition of 2.6nM of HIV-1 protease
Put plainly: Assay for inhibitory effect on HIV protease (irreversible inhibition kinetics, HPLC readout). In kind it is biochemical. The settings on record: second order rate constant; 2.6nM HIV-1 protease, pH 5.5; KINSIM/FITSIM fit; exact values hard to calculate above 10^9. On the procedure:
The inhibitory effect on HIV protease of the compounds of the present invention was determined by the following method.
To a buffer solution comprising 50mM sodium acetate, pH 5.5, 1mM dithiothreitol (DTT), 1mM ethylenediaminetetra-acetate (EDTA), 0.75M ammonium sulfate, 0.2M sodium chloride and 0.1% NP40(NONIGET P-40; Sigma Chemical Co., U.S.A.), were added various concentrations of a compound selected from the compound obtained in Examples 1 to 9 to prepare a preincubation solution. Inhibition reaction was started with the addition of 2.6nM of HIV-1 protease to the preincubation solution. Each 10µl of the reaction solution was taken at a given time interval and added to 80µl of assay solution containing 100µM of reaction substrate in the same buffer solution as the above to assay for the residual enzyme activity. In this context, an oligopeptide(KM=20µM) consisting of 11 amino acids, i.e., Ser-Ile-Ala-Glu-(p-NO2)-Phe-Leu-Val-Arg-Ala-Lys-His, was used as a reaction substrate, which oligopeptide was to be cleaved in two by the breakage of amide bond between (P-NO2)-Phe and Leu upon the attack of HIV protease. The reaction rate was determined by subjecting the substrate before the reaction and the product after the reaction to HPLC separation and then measuring the relative amount of the product, using the strong absorbance of (p-NO2)-Phe at 280nm. The amounts of reduction in enzyme activity according to the elasped time were measured and the natural logarithmic values(ln) of the measured amounts were plotted against time to obtain a linear graph and kobs was calculated from the slope of the linear graph.
The inhibition constant was calculated according to the following equation: (1)/(kobs)=(1)/(kina)+(KI)/(kina)(1)/([I]) [formula] wherein: kobs is a rate constant indicating the rate of reduction in enzyme activity according to the elapsed time under the presence of a given concentration of inhibitor, kina is a rate constant indicating the rate of chemical reaction forming covalent bond between an enzyme and an inhibitor in Michaelis-Menten complex, KI is an inhibition constant indicating the dissociation rate of Michaelis-Menten complex into an enzyme and an inhibitor, and [I] means the inhibitor concentration.
The above equation is applicable to an experiment carried out under the condition in which the concentration of inhibitor is fear higher than that of enzyme (Steady State Kinetic). […] The inhibition constants KI and kina and second order rate constant kina/KI were obtained by inputting the value of [E]/([E]+[EI]+[EI']) [formula] into KINSIM/FITSIM program.

In a further data set the test system is HIV-1. Put plainly: Anti-viral activity: syncytium formation (Sup T1) or reverse transcriptase assay (H9). In kind it is cell-based. As to conditions: Human immunodeficiency virus 1; concentration that inhibits the proliferation of HIV by 50%; H9 and Sup T1 cell lines, 200 TCID50 HIV-1; cell line not given; read-out: IC. On the procedure:
The anti-viral activity of the compounds of the present invention was determined by measuring the concentration of the compounds that inhibits the proliferation of HIV by 50%(IC50) through a survey for syncytium formation or reverse transcriptase assay.
1 x 10^5 cells of each of H9(ATCC HTB 176) and Sup T1 cell lines were added to the wells of a 24-well microtiter plate and various concentrations of the compounds of the present invention were added thereto. 200 TCID50(200-fold of 50% tissue culture infection dose) of HIV-1 inoculum and rpmi-1640 medium(Sigma Chemical Co., U.S.A) were added successively to the wells and the plate was incubated at 37°C. In case of Sup T1, the number of syncytium formed was investigated after 3 to 9 days. IC50 of each compound was determined by measuring the concentration of inhibitor that can reduce the number of syncytium by 50% compared with those formed in the same condition without the inhibitor.
In case of H9, three-quarters(3/4) of the culture medium in volume was refreshed every 3 days; and after 9 days, 6ml of the culture fluid was taken and 2.5ml of 30% polyethyleneglycol(PEG, M.W. 6000-8000) and 0.4M NaCl were added thereto. The resulting solution was allowed to stand at 0°C overnight to precipitate virus particles. The solution was centrifuged at 2000rpm for 45 minutes, the supernatant was discarded therefrom and the precipitate was diluted with 20µl of a reverse transcriptase suspension buffer(50mM tris-HCl, pH 7.5, 1mM dithiothreitol, 20% glycerol, 0.25M KCl and 0.25% Triton X-100). The resulting suspension was stored in an Effendorf tube at -70°C until used. A procedure of freezing said virus suspension for 2 minutes in dry ice and thawing same at 37°C for 2 minutes was repeated three times and the resulting suspension was centrifuged at 4°C. The resulting supernatant was used in carrying out the reverse transcriptase assay.
10µl of the said viral suspension was added to a solution of: 10µl of buffer solution(250mM tris-HCl, pH 7.5, 37.5mM MgCl2, 0.25% triton X-100), 1.2µl of 200mM dithiothreitol, 5µl of 100µM oligo(dT)-poly(A)(Boeringer Manheim, 12-18 oligomer), 1µl(1µCi) of ^3H-TTP(Thymidinetri-phosphate) and 23.6µl of water; and the resulting mixture was placed at 37°C. After 1 hour, the mixture was poured onto a WHATMAN DEB1 filter and the filter was washed three times with 5ml of 2 x SSC buffer solution(17.53g of sodium chloride, 8.82g of sodium citrate, pH 7.0, 1 liter of water) for about 10 minutes each time and twice with 95% methanol for 10 seconds. The filter was put onto aluminium foil and dried with an infrared lamp. The amount of radioactivity was counted using a liquid scintillation counter.

Another data set can be described thus: in vitro. The settings on record: human, h9 or sup t1 cells. On the procedure: To determine the cytotoxicity of the compounds of the present invention, 0.1µM to 100µM of the novel compounds were added to H9 cell or Sup T1 cell and the mixture was cultured on a rpmi-1640 medium at 37°C. The medium was refreshed every 3 days and the extent of cell proliferation was observed using Hemacytometer according to the trypan blue dye exclusion technique which is well known in the art. CT50(i.e., concentration that causes death of cells by 50%) was determined. As control compounds, azidothymidine(AZT, Burrows-Wellcome Co.) and Ro-31 8959(Hoffmann-La Roche AG) were used. […]

On to `CC(C)(C)NS(=O)(=O)CC[C@@H]1O[C@@H]1[C@H](Cc1ccccc1)NC(=O)[C@@H](NC(=O)OCc1ccccc1)C(C)(C)S(C)(=O)=O` [Ex. 1, N-t-butyl-5S-[N-benzyloxycarbonyl-β-methanesulfonyl-L-valinyl]amino-(4R,3S)-epoxy-6-phenylhexanesulfonamide], for which, at HIV-1 protease, the kinact/KI was 1.67e+07 to 1.67e+08 M⁻¹ s⁻¹. Further, in the data set with HIV-1, the IC50 stood at 25 nM. In addition, the CC50 in the data set “in vitro” is greater than 10000 nM.

Regarding `CCN(c1ccccc1)S(=O)(=O)CC[C@@H]1O[C@@H]1[C@H](Cc1ccccc1)NC(=O)[C@@H](NC(=O)c1ccc2ccccc2n1)C(C)(C)S(C)(=O)=O` [Ex. 6, N-ethyl-N-phenyl-5S-[N-(2-quinolinecarbonyl)-β-methanesulfonyl-L-valinyl]amino-(4R,3S)-epoxy-6-phenylhexanesulfonamide], at HIV-1 protease, the inactivation efficiency (kinact/KI) was 1.67e+07 to 1.67e+08 M⁻¹ s⁻¹. Further, the IC50 in the data set on HIV-1 was found to be 5 nM. In addition, the half-maximal cytotoxic concentration (CC50) in the data set “in vitro” is greater than 10000 nM.

Consider `CC(C)(C)NS(=O)(=O)CC[C@@H]1O[C@@H]1[C@H](Cc1ccccc1)NC(=O)[C@@H](NC(=O)c1ccc2ccccc2n1)C(C)(C)S(C)(=O)=O` [Ex. 2, N-t-butyl-5S-[N-(2-quinolinecarbonyl)-β-methanesulfonyl-L-valinyl]amino-(4R,3S)-epoxy-6-phenylhexanesulfonamide], for which the kinact/KI on HIV-1 protease was 1.67e+07 to 1.67e+08 M⁻¹ s⁻¹. Also, the IC50 with HIV-1 amounted to 30 nM. In addition, the 50% cytotoxic concentration (CC50) in “in vitro” is greater than 10000 nM.

On to `CCN(C(C)C)S(=O)(=O)CC[C@@H]1O[C@@H]1[C@H](Cc1ccccc1)NC(=O)[C@@H](NC(=O)c1ccc2ccccc2n1)C(C)(C)S(C)(=O)=O` [Ex. 8, N-ethyl-N-isopropyl-5S-[N-(2-quinolinecarbonyl)-β-methanesulfonyl-L-valinyl]amino-(4R,3S)-epoxy-6-phenylhexanesulfonamide], for which the kinact/KI on HIV-1 protease was 1.67e+07 to 1.67e+08 M⁻¹ s⁻¹. In addition, in the data set on HIV-1, the IC50 amounted to 10 nM. Also, the 50% cytotoxic concentration (CC50) in the data set “in vitro” is greater than 10000 nM.

Consider `CN(C(C)(C)C)S(=O)(=O)CC[C@@H]1O[C@@H]1[C@H](Cc1ccccc1)NC(=O)[C@@H](NC(=O)OCc1ccccc1)C(C)(C)S(C)(=O)=O` [Ex. 4, N-t-butyl-N-methyl-5S-[N-benzyloxycarbonyl-β-methanesulfonyl-L-valinyl]amino-(4R,3S)-epoxy-6-phenylhexanesulfonamide], for which the inactivation efficiency (kinact/KI) at HIV-1 protease is 1.67e+07 to 1.67e+08 M⁻¹ s⁻¹. Besides, in the data set with HIV-1, the IC50 came out at 1 nM. In the data set “in vitro”, the cytotoxic concentration (CC50) is greater than 10000 nM.

As for `CN(C(C)(C)C)S(=O)(=O)CC[C@@H]1O[C@@H]1[C@H](Cc1ccccc1)NC(=O)[C@@H](NC(=O)COc1cccc2cnccc12)C(C)(C)S(C)(=O)=O` [Ex. 5, N-t-butyl-N-methyl-5S-(N-(5-isoquinolyloxymethylcarbonyl)-β-methanesulfonyl-L-valinyl]amino-(4R,3S)-epoxy-6-phenylhexanesulfonamide], the kinact/KI at HIV-1 protease was 1.67e+07 to 1.67e+08 M⁻¹ s⁻¹. Further, the IC50 in the data set with HIV-1 turned out to be 5 nM. Further, the CC50 in the data set “in vitro” was greater than 10000 nM.

For the compound `CC(C)(C)NS(=O)(=O)CC[C@@H]1O[C@@H]1[C@H](Cc1ccccc1)NC(=O)[C@H](CC(N)=O)NC(=O)c1ccc2ccccc2n1` [Ex. 3], at HIV-1 protease, the kinact/KI was 1.67e+07 to 1.67e+08 M⁻¹ s⁻¹. The IC50 in the data set with HIV-1 worked out at 10 nM. In the data set “in vitro”, this compound gave a 50% cytotoxic concentration (CC50) greater than 10000 nM.

As for `CCN(c1ccccc1)S(=O)(=O)CC[C@@H]1O[C@@H]1[C@H](Cc1ccccc1)NC(=O)[C@H](CC(N)=O)NC(=O)c1ccc2ccccc2n1` [Ex. 7, N-ethyl-N-phenyl-5S-[N-(2-quinolinecarbonyl)-L-asparaginyl]amino-(4R,3S)-epoxy-6-phenylhexanesulfonaimide], the inactivation efficiency (kinact/KI) on HIV-1 protease was 1.67e+07 to 1.67e+08 M⁻¹ s⁻¹. Besides, the IC50 in the data set with HIV-1 was 20 nM. Besides, the half-maximal cytotoxic concentration (CC50) in “in vitro” is greater than 10000 nM.

For the compound `Cc1cn([C@H]2C[C@H](N=[N+]=[N-])[C@@H](CO)O2)c(=O)[nH]c1=O` [AZT, azidothymidine, reference compound], the IC50 in the data set on HIV-1 was 12 nM. This compound also yielded a CC50 in the data set “in vitro” greater than 10000 nM.

Regarding `CC(C)C(NS(=O)(=O)CC[C@@H]1O[C@@H]1[C@H](Cc1ccccc1)NC(=O)[C@@H](NC(=O)OCc1ccccc1)C(C)(C)S(C)(=O)=O)C(C)C` [Ex. 9, N-(2,4-dimethyl-3-pentyl)-5S-[N-(2-benzyloxycarbonyl)-β-methanesulfonyl-L-valinyl]amino-(4R,3S)-epoxy-6-phenylhexanesulfonamide], on HIV-1 protease, the second-order inactivation constant (kinact/KI) was 1.67e+07 to 1.67e+08 M⁻¹ s⁻¹. For the same compound, in the data set with HIV-1, the IC50 was 10 nM. In addition, in “in vitro”, the 50% cytotoxic concentration (CC50) is greater than 10000 nM.

What is called kinact/KI is the maximal inactivation rate divided by the concentration that gives half of it. A word on the CC50: it is the concentration giving 50% cytotoxicity.
